Results reported in ChEMBL document CHEMBL1130057, “Tyrosine kinase inhibitors. 12. Synthesis and structure-activity relationships for 6-substituted 4-(phenylamino)pyrimido[5,4-d]pyrimidines designed as inhibitors of the epidermal growth factor receptor” (J Med Chem, 1997).

Key:
[1] = target: T1, Epidermal growth factor receptor (Homo sapiens, UniProt P00533); assay: Inhibition of phosphorylation of phospholipase C gamma1 by Epidermal growth factor receptor, from human A431 carcinoma cell vesicles
[2] = target: T1, Epidermal growth factor receptor; assay: Tested for ability to inhibit autophosphorylation of the Epidermal growth factor receptor in human epidermoid carcinoma cells
[3] = target: T1, Epidermal growth factor receptor; assay: Tested for inhibition of PLC gamma-derived substrate in Epidermal growth factor receptor stimulated A431 cells
[4] = target: T1, Epidermal growth factor receptor; assay: Tested for inhibition of autophosphorylation in Epidermal growth factor receptor stimulated A431 cells

T1 sequence (P00533 whole entry): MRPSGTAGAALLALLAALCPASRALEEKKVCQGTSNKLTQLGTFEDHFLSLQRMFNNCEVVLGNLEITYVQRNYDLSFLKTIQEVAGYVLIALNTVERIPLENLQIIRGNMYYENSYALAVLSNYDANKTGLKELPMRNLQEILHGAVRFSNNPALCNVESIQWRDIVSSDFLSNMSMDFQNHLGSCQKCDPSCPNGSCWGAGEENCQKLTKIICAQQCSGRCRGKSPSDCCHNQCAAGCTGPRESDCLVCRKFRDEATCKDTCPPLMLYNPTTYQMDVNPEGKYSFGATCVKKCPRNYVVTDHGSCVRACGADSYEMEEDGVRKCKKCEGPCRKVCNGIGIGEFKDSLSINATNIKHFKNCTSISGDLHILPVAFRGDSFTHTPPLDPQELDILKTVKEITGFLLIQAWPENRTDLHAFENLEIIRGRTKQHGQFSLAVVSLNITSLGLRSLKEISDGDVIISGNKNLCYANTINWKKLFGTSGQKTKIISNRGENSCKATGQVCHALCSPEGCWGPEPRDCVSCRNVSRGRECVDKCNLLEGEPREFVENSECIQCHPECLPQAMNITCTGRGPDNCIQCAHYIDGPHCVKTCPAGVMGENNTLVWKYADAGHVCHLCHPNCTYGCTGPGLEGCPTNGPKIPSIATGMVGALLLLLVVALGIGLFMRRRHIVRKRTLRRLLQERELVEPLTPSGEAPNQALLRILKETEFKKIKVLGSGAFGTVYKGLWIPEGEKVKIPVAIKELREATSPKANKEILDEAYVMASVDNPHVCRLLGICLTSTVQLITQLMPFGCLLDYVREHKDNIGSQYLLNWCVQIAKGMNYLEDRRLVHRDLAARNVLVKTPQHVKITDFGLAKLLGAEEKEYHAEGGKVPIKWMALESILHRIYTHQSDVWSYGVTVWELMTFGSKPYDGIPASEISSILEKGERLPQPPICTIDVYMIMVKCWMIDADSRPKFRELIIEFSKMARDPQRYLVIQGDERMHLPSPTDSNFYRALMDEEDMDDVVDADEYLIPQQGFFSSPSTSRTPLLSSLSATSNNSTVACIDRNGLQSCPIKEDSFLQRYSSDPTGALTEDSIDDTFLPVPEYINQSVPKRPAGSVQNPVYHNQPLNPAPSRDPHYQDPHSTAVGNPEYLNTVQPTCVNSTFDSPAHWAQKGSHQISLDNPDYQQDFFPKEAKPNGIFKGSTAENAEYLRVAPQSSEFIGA

Row | SMILES | IC50 [1] [nM] | other results
1 | Brc1cccc(Nc2ncnc3cnc(NCCCn4ccnc4)nc23)c1 | 2.3 | –
2 | Brc1cccc(Nc2ncnc3cnc(NCCc4c[nH]cn4)nc23)c1 | 0.25 | IC50 [2]: 5.1 nM
3 | CNc1ncc2ncnc(Nc3ccccc3)c2n1 | 13 | –
4 | CN(C)CCNc1ncc2ncnc(Nc3cccc(Br)c3)c2n1 | 35 | –
5 | Cc1cccc(Nc2ncnc3cnc(NCCN4CCOCC4)nc23)c1 | 2.3 | –
6 | Cc1cccc(Nc2ncnc3cnc(N)nc23)c1 | 17 | –
7 | CN(C)c1cc2c(Nc3cccc(Br)c3)ncnc2cn1 | – | IC50 [3]: 2.6 nM; IC50 [4]: 12 nM
8 | Brc1cccc(Nc2ncnc3cnc(NCCN4CCOCC4)nc23)c1 | 0.81 | IC50 [2]: 3.1 nM
9 | Cc1cccc(Nc2ncnc3cnc(NCCc4c[nH]cn4)nc23)c1 | 3 | –
10 | Cc1cccc(Nc2ncnc3cnc(Cl)nc23)c1 | 380 | –
11 | COc1ncc2ncnc(Nc3cccc(Br)c3)c2n1 | 3.8 | –
12 | CNc1ccc2ncnc(Nc3cccc(Br)c3)c2c1 | – | IC50 [3]: 11 nM
13 | Nc1ncc2ncnc(Nc3cccc(Br)c3)c2n1 | 1.5 | –
14 | Clc1ncc2ncnc(Nc3ccccc3)c2n1 | 2550 | –
15 | CNc1ncc2ncnc(Nc3cccc(Br)c3)c2n1 | 0.76 | IC50 [2]: 30 nM
16 | Clc1ncc2ncnc(Nc3cccc(Br)c3)c2n1 | 82 | –
17 | Cc1cccc(Nc2ncnc3cnc(N(C)C)nc23)c1 | 4 | –
